Consider 19 molecules from PubChem BioAssay (NCI).

Some test systems named below: CCRF-CEM leukemia; NCI-H23 lung; HOP-92 NSCLC; SF-539 CNS; HS 578T breast; M14 melanoma; SNB-75 CNS; NCI-H522 lung; SW-620 colon; SK-MEL-2 melanoma.
Assay in all cases: NCI-60 cell line screen, 48 h

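Five compound concentrations were applied to cells in 96-well plates for 48 hours; endpoints were derived by simple linear interpolation of the resulting dose-response curve. TGI marks complete inhibition of growth.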 Where a SMILES comes first, the peptide text is derived from it. [ ]: non-standard residue; d: D form. The star is where a group is joined. ξ: configuration not given here. X37 = O=C(OCc1ccccc1)[C@@H]1CCC[C@H]1N*; Fmoc = O=C(OCC1c2ccccc2-c2ccccc21)*; ξW = NC(Cc1c[nH]c2ccccc12)C(=O)O; ξF = NC(Cc1ccccc1)C(=O)O; Boc = CC(C)(C)OC(=O)*; ξK = NCCCCC(N)C(=O)O; ξT = CC(O)C(N)C(=O)O; tBu = CC(C)(C)*

Turning to `Nc1nc(Cl)cc(NCC2(CO)CC(CCCCc3ccccc3)C2)n1` (stereo not given), the TGI in the test with CCRF-CEM leukemia, in the test with NCI-H23 lung, in the test on HOP-92 NSCLC, in the test on SF-539 CNS, in the test with HS 578T breast and in the test with M14 melanoma was over 100 µM in each case. In addition, the TGI with SNB-75 CNS, with NCI-H522 lung, in the test with SW-620 colon and with SK-MEL-2 melanoma was over 100 µM throughout.
In the case of `C[N+](C)(C)CCCCCc1c2nc(c(CCCCC[N+](C)(C)C)c3ccc([nH]3)c(CCCCC[N+](C)(C)C)c3ccc([nH]3)c(CCCCC[N+](C)(C)C)c3nc1C=C3)C=C2`, the TGI with CCRF-CEM leukemia, in the test with NCI-H23 lung, in the test on HOP-92 NSCLC, in the test with SF-539 CNS, with HS 578T breast and in the test with M14 melanoma was over 100 µM throughout. The TGI in the test with SNB-75 CNS, in the test on NCI-H522 lung, in the test with SW-620 colon and in the test with SK-MEL-2 melanoma was over 100 µM each time.
In the case of `COc1ccc(N(C(=O)OC(C)(C)C)[C@@H]2C(C)=C[C@H]([S@@](=O)c3ccc(C)cc3)[C@@H]3C(=O)N(C)C(=O)[C@@H]32)cc1`, the TGI in the test on CCRF-CEM leukemia is over 100 µM; with NCI-H23 lung, 45.7 µM; with HOP-92 NSCLC, 61.5 µM; with SF-539 CNS it was 43.5 µM; with HS 578T breast, 42.9 µM; with M14 melanoma, over 100 µM. Also, the TGI in the test on SNB-75 CNS came out at 21.4 µM; in the test on NCI-H522 lung, 18.5 µM; in the test on SW-620 colon, 45.5 µM; in the test on SK-MEL-2 melanoma, 39.3 µM.
As to `COc1ccc(OC)c2c1C[C@@H]1C(C#N)N3[C@H](Cc4c(OC)ccc(OC)c4[C@@H]3C)C(=O)N1[C@H]2C` (stereo not given in full), the TGI with CCRF-CEM leukemia is 6.75 µM; in the test with NCI-H23 lung it was 19.6 µM; with HOP-92 NSCLC it was 5.37 µM; with SF-539 CNS, 5.97 µM; with HS 578T breast, over 100 µM; with M14 melanoma it was 8.54 µM. Besides, the TGI in the test on SNB-75 CNS turned out to be 5.02 µM; in the test with NCI-H522 lung, 3.3 µM; with SW-620 colon, 8.41 µM; in the test with SK-MEL-2 melanoma, 5.2 µM.
As for `Cc1ccc(Nc2ncnc3sc(SCc4ccccc4)nc23)cc1`, the TGI in the test with CCRF-CEM leukemia, in the test with NCI-H23 lung, with HOP-92 NSCLC, in the test with SF-539 CNS, in the test on HS 578T breast and in the test with M14 melanoma was over 100 µM throughout. The TGI in the test on SNB-75 CNS, in the test with NCI-H522 lung, with SW-620 colon and with SK-MEL-2 melanoma was over 100 µM in each case.
As to `CC(=O)c1ccc2c(c1)CC1(C2)Cc2cc3c(cc2C1)C(=O)CC3` (stereo not given), the TGI was 3.87 µM in the test with CCRF-CEM leukemia; 14.7 µM in the test with NCI-H23 lung; 32.8 µM with HOP-92 NSCLC; 3.39 µM in the test on SF-539 CNS; over 69.2 µM in the test on HS 578T breast; 17.6 µM in the test on M14 melanoma. For the same molecule, the TGI in the test on SNB-75 CNS was over 100 µM; in the test with NCI-H522 lung it was 14.2 µM; in the test on SW-620 colon, over 100 µM; with SK-MEL-2 melanoma, 5.75 µM.
Turning to `CC(C)(C)[C@@H]1NC(=O)CN1C(=O)OCc1ccccc1`, the TGI with CCRF-CEM leukemia, with NCI-H23 lung, in the test with HOP-92 NSCLC, in the test with SF-539 CNS, in the test with HS 578T breast and in the test on M14 melanoma was over 100 µM throughout. Besides, the TGI in the test with SNB-75 CNS, with NCI-H522 lung, in the test on SW-620 colon and with SK-MEL-2 melanoma was over 100 µM each time.
`CC(C)(C)c1cc(C2COC(=O)COCCOCC(=O)OCCOCCO2)cc(C(C)(C)C)c1O` (stereo not given): the TGI in the test on CCRF-CEM leukemia was over 100 µM; in the test on NCI-H23 lung it was 99.1 µM; in the test with HOP-92 NSCLC, 59.4 µM; in the test with SF-539 CNS it was over 100 µM; in the test on HS 578T breast, 77.7 µM; in the test on M14 melanoma, over 100 µM. For the same molecule, the TGI in the test with SNB-75 CNS is 49.6 µM; in the test on NCI-H522 lung, over 94 µM; in the test with SW-620 colon, over 100 µM; in the test with SK-MEL-2 melanoma it was over 100 µM.
As for `Cc1[nH]n(C(=O)c2ccccc2O)c(=O)c1/C=C1\C(=O)C=Cc2ccccc21`, the TGI with CCRF-CEM leukemia is over 36.4 µM; in the test on NCI-H23 lung, 9.99 µM; in the test with HOP-92 NSCLC it was 28.7 µM; with SF-539 CNS, 3.35 µM; in the test on HS 578T breast, over 100 µM; with M14 melanoma it was 4.63 µM. Besides, the TGI with SNB-75 CNS was 10.4 µM; in the test on NCI-H522 lung, 15.1 µM; with SW-620 colon it was over 100 µM; in the test with SK-MEL-2 melanoma it was 17.2 µM.
`CC(C)C[C@H](NC(=O)[C@@H](Cc1cccc2ccccc12)NC(=O)N1CCOCC1)B(O)O`: the TGI was 15.2 µM in the test on CCRF-CEM leukemia; 8.94 µM with NCI-H23 lung; 8.55 µM in the test with HOP-92 NSCLC; 4.61 µM in the test on SF-539 CNS; over 25.6 µM in the test with HS 578T breast; 10.8 µM with M14 melanoma. The TGI in the test with SNB-75 CNS came out at 18.8 µM; in the test with NCI-H522 lung, 4.4 µM; with SW-620 colon it was 12.2 µM; in the test on SK-MEL-2 melanoma, 13.1 µM.
Consider `CC(OC(C)(C)C)C(NC(=O)C(CCCCNC(=O)OC(C)(C)C)NC(=O)C(Cc1c[nH]c2ccccc12)NC(=O)C(Cc1ccccc1)NC(=O)OCC1c2ccccc2-c2ccccc21)C(=O)NC(Cc1ccccc1)C(=O)N[C@@H]1CCC[C@H]1C(=O)OCc1ccccc1` (stereo not given in full) (Fmoc-[ξF][ξW][ξK](Boc)[ξT](tBu)[ξF]-X37), for which the TGI with CCRF-CEM leukemia, with NCI-H23 lung, in the test on HOP-92 NSCLC, with SF-539 CNS, with HS 578T breast and with M14 melanoma was over 100 µM in each case. Also, the TGI with SNB-75 CNS, in the test with NCI-H522 lung, in the test on SW-620 colon and in the test on SK-MEL-2 melanoma was over 100 µM in each case.
On to `CC1(C)OC1CC/C(=C/CBr)CBr` (stereo not given), for which the TGI with CCRF-CEM leukemia came to 34.1 µM; in the test on NCI-H23 lung it was 29.6 µM; in the test with HOP-92 NSCLC, 29.4 µM; in the test on SF-539 CNS it was 32.2 µM; in the test on HS 578T breast, 47.7 µM; in the test with M14 melanoma, 36.5 µM. The TGI worked out at 21 µM in the test with SNB-75 CNS, 23.5 µM in the test with NCI-H522 lung, 28.7 µM in the test on SW-620 colon and 29 µM in the test on SK-MEL-2 melanoma.
In the case of `OC1(c2ccc(Cl)cc2)c2ccccc2C2=Nc3ccccc3CN21` (stereo not given), the TGI was over 100 µM in the test on CCRF-CEM leukemia; over 100 µM with NCI-H23 lung; over 100 µM with HOP-92 NSCLC; over 100 µM with SF-539 CNS; 74.1 µM in the test with HS 578T breast; over 100 µM in the test with M14 melanoma. For the same molecule, the TGI in the test with SNB-75 CNS is 44 µM; in the test on NCI-H522 lung it was 67.2 µM; in the test with SW-620 colon it was over 100 µM; with SK-MEL-2 melanoma it was over 89.6 µM.
Consider `CCC1=C(C)C2=NC1=CC1=NC(=C(CC)/C1=C/O)C=C1N=C3C(=C1C)C(=O)C(C(=O)OC)C3=C1NC(=C2)C(C)C1CCC(=O)OC` (stereo not given), for which the TGI in the test on CCRF-CEM leukemia, in the test with NCI-H23 lung, with HOP-92 NSCLC, with SF-539 CNS, in the test with HS 578T breast and in the test with M14 melanoma was over 100 µM each time. The TGI with SNB-75 CNS, in the test with NCI-H522 lung, in the test on SW-620 colon and in the test on SK-MEL-2 melanoma was over 100 µM in each case.
For `S=C1c2cc(Cl)ccc2NC(=NC2CCCC2)C2CSCN12` (stereo not given), the TGI in the test with CCRF-CEM leukemia, in the test with NCI-H23 lung, in the test with HOP-92 NSCLC, in the test with SF-539 CNS, in the test on HS 578T breast and with M14 melanoma was over 100 µM each time. The TGI in the test with SNB-75 CNS, with NCI-H522 lung, in the test on SW-620 colon and in the test on SK-MEL-2 melanoma was over 100 µM in each case.
Take `Cc1nc2c(=O)[nH]c(=O)nc-2n(CCO)c1C`: the TGI with CCRF-CEM leukemia, in the test with NCI-H23 lung, with HOP-92 NSCLC, in the test with SF-539 CNS, with HS 578T breast and in the test on M14 melanoma was over 100 µM throughout. Further, the TGI with SNB-75 CNS, in the test with NCI-H522 lung, in the test with SW-620 colon and in the test with SK-MEL-2 melanoma was over 100 µM throughout.
`COc1ccc2c(c1)CCC(CN1CCN(CCOC(c3ccc(F)cc3)c3ccc(F)cc3)CC1)=C2`: the TGI with CCRF-CEM leukemia is over 100 µM; in the test with NCI-H23 lung, 38.2 µM; in the test on HOP-92 NSCLC, 42 µM; with SF-539 CNS, 42.3 µM; in the test on HS 578T breast it was 50.7 µM; in the test on M14 melanoma, 27.4 µM. Moreover, the TGI with SNB-75 CNS is over 100 µM; with NCI-H522 lung it was 27.8 µM; in the test on SW-620 colon, over 100 µM; in the test with SK-MEL-2 melanoma, 33.3 µM.
As to `CCCCc1cc2c(cc1O)CCC1C2CC[C@@]2(C)C1CC[C@@H]2O` (stereo not given in full), the TGI worked out at 56.7 µM in the test on CCRF-CEM leukemia; 41.3 µM in the test with NCI-H23 lung; 39.3 µM in the test on HOP-92 NSCLC; 59.3 µM in the test with SF-539 CNS; 43.8 µM in the test on HS 578T breast; 41.7 µM with M14 melanoma. Besides, the TGI with SNB-75 CNS was 31.7 µM; with NCI-H522 lung, 43.7 µM; with SW-620 colon, 59.2 µM; in the test on SK-MEL-2 melanoma, 38.1 µM.
On to `CC1(c2cccc(C3CCC4(C=CC3=O)OCCO4)c2)OCCO1` (stereo not given), for which the TGI worked out at 10.5 µM in the test with CCRF-CEM leukemia; 24 µM with NCI-H23 lung; 17.8 µM in the test on HOP-92 NSCLC; 28.5 µM in the test with SF-539 CNS; 41.8 µM in the test with HS 578T breast; 20.1 µM with M14 melanoma. In addition, the TGI was 30.3 µM with SNB-75 CNS, 3.53 µM in the test with NCI-H522 lung, 8.07 µM in the test on SW-620 colon and 27.4 µM in the test with SK-MEL-2 melanoma.
